# From patent US20220307013A1, “GENE FRAGMENT OVEREXPRESSION SCREENING METHODOLOGIES, AND USES THEREOF” (priority 2019, published 2022)
# “Also recorded” adds a separate entry of the source. Where no end group is shown, it is not given here.
# What was measured:
# MDA-MB-231 cells = experiment: Arrayed validation of lentivirally delivered gene fragments, WST-8 cell growth, MDA-MB-231; conditions: 7 days, vs GFP control
# Procedure: (§2) All cell lines used were cultured in DMEM media supplemented with 10% FBS. The fitness impact of highly depleted gene fragments was tested in an arrayed format via a WST-8 (Dojindo) cell growth assay. […] Cells were transduced at an MOI of 4 and switched to puromycin containing media after 48 hours. Following 24 hours of puromycin selection 1,500 cells were seeded per well as biological replicates in a 96 well plate. All experimental groups for Hs578T cells had n=4. […] For HEK293T and MCF-7 cells all experimental groups had n=8. 2 μg/ml puromycin was used to select Hs578T and MCF-7 cells, while 3.5 μg/ml puromycin was used to select MDA-MB-231 and HEK293T cells. […] Cell growth was then quantified via absorbance at 450 nm following 1.5 hrs of incubation with WST-8 reagent. A two-tailed P value was then calculated via an unpaired ttest with Welch's correction.
# Hs578T cells = experiment: Arrayed validation of lentivirally delivered gene fragments, WST-8 cell growth, Hs578T; conditions: 7 days, vs GFP control
# Procedure: as §2
# HUH6-luc = experiment: Cell proliferation assay (CellTiter-Glo), HUH6-luc; format: cell-based; conditions: RAF1 mRNA (Log2) 6.05, 72 hrs
# Procedure: (§1) Cell Proliferation Assay. The Tat-RAF1-73, Tat-RAF1-78, Tat-EGFR-697 and Tat-Flag peptides were tested for growth inhibition in an in vitro cell proliferation assay. The assay tested the peptides against ten tumor cell lines and four non-tumor cell lines (Primary Fibroblasts, CCD 841 CoN, human umbilical vein cells and Human Hepatocytes). Cells were plated in a 384 well plate and allowed to grow for 24 hrs. Peptides were then added to cultures at a final concentration range of 100 μM-0.2 μM. Cells and peptides were then reacted for 72 hrs, after which the CellTiter-Glo Luminescent Cell Viability Assay kit (Promega) was used to assess cytotoxicity of therapeutic peptides. IC50 values were determined by the percent cell growth of the untreated (vehicle) control calculated from the luminescence signals compared to test wells. The surviving fraction of cells is determined by dividing the mean luminescence values of the test agents by the mean luminescence values of the untreated control. The inhibitory concentration value, IC50, for the test agents and control was estimated using Prism 8 software (GraphPad Software, Inc.) by curve- fitting the data using the non-linear regression analysis.
# CCD 841 CoN = experiment: Cell proliferation assay (CellTiter-Glo), CCD 841 CoN; format: cell-based; conditions: Normal Human Colon (non-tumor), 72 hrs
# Procedure: as §1
# MDA-MB-231 = experiment: Cell proliferation assay (CellTiter-Glo), MDA-MB-231; format: cell-based; conditions: MDA-MB-231, EGFR mRNA (Log2) 4.78, 72 hrs
# Procedure: as §1
# SK-MEL-5 = experiment: Cell proliferation assay (CellTiter-Glo), SK-MEL-5; format: cell-based; conditions: SK-MEL-5, EGFR mRNA (Log2) 5.92, 72 hrs
# Procedure: as §1
# Jurkat = experiment: Cell proliferation assay (CellTiter-Glo), Jurkat; format: cell-based; conditions: RAF1 mRNA (Log2) 6.05, 72 hrs
# Procedure: as §1
# H929 = experiment: Cell proliferation assay (CellTiter-Glo), H929; format: cell-based; conditions: H929, Human Multiple Myeloma, peptides 100 μM-0.2 μM, 72 hrs
# Procedure: as §1
# Primary Fibroblasts = experiment: Cell proliferation assay (CellTiter-Glo), Primary Fibroblasts; format: cell-based; conditions: Skin Fibroblast (non-tumor), 72 hrs
# Procedure: as §1
# SNU398 = experiment: Cell proliferation assay (CellTiter-Glo), SNU398; format: cell-based; conditions: SNU398, RAF1 mRNA (Log2) 6.07, 72 hrs
# Procedure: as §1
# Colo205 = experiment: Cell proliferation assay (CellTiter-Glo), Colo205; format: cell-based; conditions: Colo205, Human Colon, 72 hrs
# Procedure: as §1
# Human Hepatocytes = experiment: Cell proliferation assay (CellTiter-Glo), Human Hepatocytes; format: cell-based; conditions: Human Hepatocytes (non-tumor), 72 hrs
# Procedure: as §1
# FaDu = experiment: Cell proliferation assay (CellTiter-Glo), FaDu; format: cell-based; conditions: EGFR mRNA (Log2) 6.28, 72 hrs
# Procedure: as §1
# A549 = experiment: Cell proliferation assay (CellTiter-Glo), A549; format: cell-based; conditions: A549, RAF1 mRNA (Log2) Negative, 72 hrs
# Procedure: as §1
# HT1376 = experiment: Cell proliferation assay (CellTiter-Glo), HT1376; format: cell-based; conditions: HT1376, EGFR mRNA (Log2) 5., 72 hrs, starred value was averaged using >100 μM value for one trial result
# Procedure: as §1
# [1] = test system: ten tumor cell lines and four non-tumor cell lines; experiment: Cell proliferation assay (CellTiter-Glo), summary over the cell panel; format: cell-based; conditions: any of the cells screened
# Procedure: as §1
# Ten cancer cell lines were screened as well as […] non-cancer cell types (e.g. primary fibroblasts, CCD 841 CoN, and human hepatocytes). […]
# [2] = test system: Human umbilical vein endothelial cells (HUVEC); experiment: Cell proliferation assay (CellTiter-Glo), HUVEC; format: cell-based; conditions: Normal endothelial (non-tumor), 72 hrs
# Procedure: as §1
# HEK293T cells = experiment: Arrayed validation of lentivirally delivered gene fragments, WST-8 cell growth, HEK293T
# Procedure: as §2
# [3] = test system: triple-negative breast cancer cell growth; experiment: Inhibition of cell growth by drug-like peptides (summary statements); format: cell-based; conditions: compared with FDA approved small molecules
# Procedure: Engineering Peptides for Exogenous Delivery. Peptides shown in FIG. 3B were fused to an N-terminal cell penetrating motif via a (GS)3 linker sequence (Table 5) and chemically synthesized by GenScript's Custom Peptide Synthesis service at crude purity. For dose response experiments, cells were plated in 96 well plates (n=4) at 50% confluency and peptides were added at the indicated concentrations with cell viability quantified after 24hrs via the WST-8 assay. Cell viability was normalized to that of an untreated control on the same plate.
# MCF-7 cells = experiment: Arrayed validation of lentivirally delivered gene fragments, WST-8 cell growth, MCF-7
# Procedure: as §2
sequence,measurement,setting,value
MIQNHFVDEYDPTIEDSYRKQVVIDGETCLLDILDTAGKEE [KRAS61K-3],cell growth after lentiviral overexpression (WST-8),MDA-MB-231 cells,significantly reduced cell growth
same,cell growth after lentiviral overexpression (WST-8),Hs578T cells,significantly reduced cell growth
"GRKKRRQRRRPPQGSGSGSDYKDHDGDYKDHDIDYKDDDDK [Tat-Flag, reference compound]",IC50,HUH6-luc,> 100 µM
same,IC50,CCD 841 CoN,> 100 µM
same,IC50,MDA-MB-231,> 100 µM
same,IC50,SK-MEL-5,> 100 µM
same,IC50,Jurkat,> 100 µM
same,IC50,H929,> 100 µM
same,IC50,Primary Fibroblasts,> 100 µM
same,IC50,SNU398,> 100 µM
same,IC50,Colo205,> 100 µM
same,IC50,Human Hepatocytes,> 100 µM
same,IC50,FaDu,> 100 µM
same,IC50,A549,> 100 µM
same,IC50,HT1376,> 100 µM
same,activity in the cells screened,[1],no activity
same,IC50,[2],> 100 µM
MRNGMSLHDCLMKALKVRGLQPECCAVFRLLHEHKGKKARL (cysteines drawn unpaired) [RAF1-73],cell growth after lentiviral overexpression (WST-8),HEK293T cells,no growth defects
same,triple-negative breast cancer cell growth in vitro,[3],opposed triple-negative breast cancer cell growth in vitro as effectively as some FDA approved small molecules
MFVDEYDPTIEDSYRKQVVIDGETCLLDILDTAGKEEYSAM [KRAS61K-7],cell growth after lentiviral overexpression (WST-8),MDA-MB-231 cells,significantly reduced cell growth
same,cell growth after lentiviral overexpression (WST-8),Hs578T cells,significantly reduced cell growth
MEAPNQALLRILKETEFKKIKVLGSGAFGTVYKGLWIPEGE [EGFR-697],cell growth after lentiviral overexpression (WST-8),HEK293T cells,no growth defects
same,cell growth after lentiviral overexpression (WST-8),MCF-7 cells,reduced fitness defect
same,cell growth after lentiviral overexpression (WST-8),MDA-MB-231 cells,deleterious to cell growth
same,triple-negative breast cancer cell growth in vitro,[3],opposed triple-negative breast cancer cell growth in vitro as effectively as some FDA approved small molecules
same,cell growth after lentiviral overexpression (WST-8),Hs578T cells,deleterious to cell growth; also recorded: significant growth arrest
GRKKRRQRRRPPQGSGSGSMEAPNQALLRILKETEFKKIKVLGSGAFGTVYKGLWIPEGE [Tat-EGFR-697],IC50,HUH6-luc,73.5 µM
same,IC50,CCD 841 CoN,> 100 µM
same,IC50,MDA-MB-231,56.6 µM
same,IC50,SK-MEL-5,27.6 µM
same,IC50,Jurkat,41.1 µM
same,IC50,H929,5.1 µM
same,IC50,Primary Fibroblasts,15.1 µM
same,IC50,SNU398,29.2 µM
same,IC50,Colo205,19.8 µM
same,IC50,Human Hepatocytes,11.6 µM
same,IC50,FaDu,89.2 µM
same,IC50,A549,59.6 µM
same,IC50,HT1376,95.6 µM
same,IC50,[2],14 µM
MPTIEDSYRKQVVIDGETCLLDILDTAGKEEYSAMRDQYMR [KRAS61K-13],cell growth after lentiviral overexpression (WST-8),MDA-MB-231 cells,significantly reduced cell growth
same,cell growth after lentiviral overexpression (WST-8),Hs578T cells,significantly reduced cell growth
